Source: ChEMBL document CHEMBL4304804, “Synthesis and biological evaluation of calycanthaceous alkaloid analogs” (Bioorg Med Chem, 2019)
≈ marks a conversion by molar mass, not a printed value. Calls of active or inactive are those of the source. The calls are words filed in the database; no cut-off is given here.

Key:
Cytospora = assay: Antifungal activity against Cytospora juglandis assessed as reduction in fungal cell growth incubated for 48 hrs by serial dilution method; type: functional
Bacillus cereus = assay: Antibacterial activity against Bacillus cereus assessed as reduction in bacterial cell growth incubated for 24 hrs by filter paper assay; type: functional
Cryptococcus neoformans = assay: Antifungal activity against Cryptococcus neoformans assessed as reduction in fungal cell growth incubated for 48 hrs by serial dilution method; type: functional
Candida tropicalis = assay: Antifungal activity against Candida tropicalis assessed as reduction in fungal cell growth incubated for 48 hrs by serial dilution method; type: functional
Pseudomonas aeruginosa = assay: Antibacterial activity against Pseudomonas aeruginosa assessed as reduction in bacterial cell growth incubated for 24 hrs by filter paper assay; type: functional
Aspergillus niger = assay: Antifungal activity against Aspergillus niger assessed as reduction in fungal cell growth incubated for 48 hrs by serial dilution method; type: functional
[1] = tested on: Colletotrichum orbiculare; assay: Antifungal activity against Colletotrichum orbiculare assessed as reduction in fungal cell growth incubated for 48 hrs by serial dilution method; type: functional
Candida = assay: Antifungal activity against […] assessed as reduction in fungal cell growth incubated for 48 hrs by serial dilution method; type: functional
Aspergillus flavus = assay: Antifungal activity against Aspergillus flavus assessed as reduction in fungal cell growth incubated for 48 hrs by serial dilution method; type: functional
Ralstonia solanacearum = assay: Antibacterial activity against Ralstonia solanacearum assessed as reduction in bacterial cell growth incubated for 24 hrs by filter paper assay; type: functional
Verticillium dahliae = assay: Antifungal activity against Verticillium dahliae assessed as reduction in fungal cell growth incubated for 48 hrs by serial dilution method; type: functional
Fusarium oxysporum = assay: Antifungal activity against Fusarium oxysporum assessed as reduction in fungal cell growth incubated for 48 hrs by serial dilution method; type: functional
Curvularia lunata = assay: Antifungal activity against Curvularia lunata assessed as reduction in fungal cell growth incubated for 48 hrs by serial dilution method; type: functional
Penicillium citrinum = assay: Antifungal activity against Penicillium citrinum assessed as reduction in fungal cell growth incubated for 48 hrs by serial dilution method; type: functional
Staphylococcus aureus = assay: Antibacterial activity against Staphylococcus aureus assessed as reduction in bacterial cell growth incubated for 24 hrs by filter paper assay; type: functional
[2] = tested on: Fusarium oxysporum f. sp. vasinfectum; assay: Antifungal activity against Fusarium oxysporum sp. vasinfectum assessed as reduction in fungal cell growth incubated for 48 hrs by serial dilution method; type: functional
Acetylcholinesterase = Acetylcholinesterase (Electrophorus electricus, UniProt O42275); assay: Inhibition of electric eel AChE by Ellman's colorimetry
Escherichia coli = assay: Antibacterial activity against Escherichia coli assessed as reduction in bacterial cell growth incubated for 24 hrs by filter paper assay; type: functional
[3] = molecular target: Acetylcholinesterase (Electrophorus electricus) (UniProt O42275); assay: Inhibition of electric eel AChE by at 1 mg/ml Ellman's colorimetry relative to control
Chain of Acetylcholinesterase (Electrophorus electricus) (O42275 24-633 limits assumed): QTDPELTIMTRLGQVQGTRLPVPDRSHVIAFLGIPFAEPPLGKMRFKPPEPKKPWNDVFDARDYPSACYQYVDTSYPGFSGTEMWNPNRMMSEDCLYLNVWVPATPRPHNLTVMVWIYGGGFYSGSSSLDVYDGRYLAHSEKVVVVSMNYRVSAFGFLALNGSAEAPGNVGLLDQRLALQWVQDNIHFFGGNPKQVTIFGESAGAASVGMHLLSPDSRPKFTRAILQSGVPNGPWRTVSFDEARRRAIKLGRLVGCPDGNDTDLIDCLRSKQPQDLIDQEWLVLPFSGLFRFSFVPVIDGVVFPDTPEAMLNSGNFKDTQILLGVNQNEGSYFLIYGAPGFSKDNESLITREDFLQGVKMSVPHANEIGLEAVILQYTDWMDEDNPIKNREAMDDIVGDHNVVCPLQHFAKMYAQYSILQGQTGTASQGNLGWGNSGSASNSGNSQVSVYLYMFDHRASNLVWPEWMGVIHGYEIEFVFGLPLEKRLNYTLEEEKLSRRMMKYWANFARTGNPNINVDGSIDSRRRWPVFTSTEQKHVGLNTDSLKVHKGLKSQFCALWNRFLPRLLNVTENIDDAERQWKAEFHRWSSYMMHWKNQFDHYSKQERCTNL

Chain of Acetylcholinesterase (O42275 whole entry): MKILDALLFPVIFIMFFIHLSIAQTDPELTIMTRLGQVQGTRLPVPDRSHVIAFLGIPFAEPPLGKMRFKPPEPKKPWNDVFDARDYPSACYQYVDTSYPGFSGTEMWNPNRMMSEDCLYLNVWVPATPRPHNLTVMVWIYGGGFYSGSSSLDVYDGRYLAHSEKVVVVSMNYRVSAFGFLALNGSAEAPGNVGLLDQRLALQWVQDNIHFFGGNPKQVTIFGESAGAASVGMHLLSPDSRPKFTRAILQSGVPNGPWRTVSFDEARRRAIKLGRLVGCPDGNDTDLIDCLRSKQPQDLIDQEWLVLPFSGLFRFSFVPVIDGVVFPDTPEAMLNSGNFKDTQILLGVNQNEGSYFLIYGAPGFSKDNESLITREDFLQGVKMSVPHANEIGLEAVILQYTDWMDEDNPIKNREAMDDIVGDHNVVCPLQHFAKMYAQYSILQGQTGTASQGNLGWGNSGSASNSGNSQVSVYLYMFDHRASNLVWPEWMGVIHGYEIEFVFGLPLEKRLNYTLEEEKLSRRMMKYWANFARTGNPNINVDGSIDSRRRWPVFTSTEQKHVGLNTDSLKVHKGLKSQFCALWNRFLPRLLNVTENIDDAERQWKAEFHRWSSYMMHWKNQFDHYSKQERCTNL

| Compound | MIC (Cytospora) | MIC (Bacillus cereus) | MIC (Cryptococcus neoformans) | MIC (Candida tropicalis) | MIC (Pseudomonas aeruginosa) | MIC (Aspergillus niger) | MIC [1] | MIC (Candida) | MIC (Aspergillus flavus) | MIC (Ralstonia solanacearum) | MIC (Verticillium dahliae) | MIC (Fusarium oxysporum) | MIC (Curvularia lunata) | MIC (Penicillium citrinum) | MIC (Staphylococcus aureus) | MIC [2] | IC50 (Acetylcholinesterase) [nM] | MIC (Escherichia coli) | inhibition [3] [%] |
| --- | --- | --- | --- | --- | --- | --- | --- | --- | --- | --- | --- | --- | --- | --- | --- | --- | --- | --- | --- |
| Cc1ccc(S(=O)(=O)N2CCC3(Cc4ccccc4C)c4ccccc4N(Cc4ccccc4C)C23)cc1 (configuration not stated) | 250 µg/mL (≈ 478 µM) | inactive | inactive | 250 µg/mL (≈ 478 µM) | inactive | 250 µg/mL (≈ 478 µM) | 250 µg/mL (≈ 478 µM) | 250 µg/mL (≈ 478 µM) | 250 µg/mL (≈ 478 µM) | 250 µg/mL (≈ 478 µM) | 62.5 µg/mL (≈ 120 µM) | 250 µg/mL (≈ 478 µM) | inactive | inactive | 250 µg/mL (≈ 478 µM) | 250 µg/mL (≈ 478 µM) | 210 | 250 µg/mL (≈ 478 µM) | > 80 |
| Cc1cccc(CN2c3ccccc3C3(Cc4cccc(C)c4)CCN(S(=O)(=O)c4ccccc4)C23)c1 (configuration not stated) | 250 µg/mL (≈ 491 µM) | 125 µg/mL (≈ 246 µM) | inactive | 125 µg/mL (≈ 246 µM) | 125 µg/mL (≈ 246 µM) | 250 µg/mL (≈ 491 µM) | 250 µg/mL (≈ 491 µM) | 250 µg/mL (≈ 491 µM) | 250 µg/mL (≈ 491 µM) | inactive | 31.2 µg/mL (≈ 61.4 µM) | 250 µg/mL (≈ 491 µM) | inactive | inactive | inactive | 250 µg/mL (≈ 491 µM) | 2810 | 250 µg/mL (≈ 491 µM) | > 80 |
| CC(C)C(=O)N1CCCC2(O)c3ccccc3N(C)C12 (configuration not stated) | inactive | inactive | inactive | inactive | 250 µg/mL (≈ 911 µM) | inactive | inactive | inactive | inactive | inactive | 250 µg/mL (≈ 911 µM) | inactive | inactive | inactive | inactive | inactive | 510 | inactive | > 80 |
| CCCCCC(=O)N1CCCC2(O)c3ccccc3N(C)C12 (configuration not stated) | 125 µg/mL (≈ 413 µM) | inactive | 250 µg/mL (≈ 827 µM) | inactive | 250 µg/mL (≈ 827 µM) | 250 µg/mL (≈ 827 µM) | 250 µg/mL (≈ 827 µM) | inactive | inactive | 125 µg/mL (≈ 413 µM) | 125 µg/mL (≈ 413 µM) | 250 µg/mL (≈ 827 µM) | 250 µg/mL (≈ 827 µM) | inactive | 125 µg/mL (≈ 413 µM) | 250 µg/mL (≈ 827 µM) | 7570 | 250 µg/mL (≈ 827 µM) | > 80 |
| CN1c2ccccc2C2(O)CCCN(C(=O)c3ccccc3)C12 (configuration not stated) | inactive | inactive | inactive | 250 µg/mL (≈ 811 µM) | 250 µg/mL (≈ 811 µM) | inactive | inactive | inactive | inactive | 62.5 µg/mL (≈ 203 µM) | inactive | inactive | inactive | inactive | 250 µg/mL (≈ 811 µM) | inactive | 259 | 250 µg/mL (≈ 811 µM) | > 80 |
| CN1c2ccccc2C2(O)CCCN(C(=O)c3ccc(F)cc3)C12 (configuration not stated) | 250 µg/mL (≈ 766 µM) | inactive | inactive | 250 µg/mL (≈ 766 µM) | 250 µg/mL (≈ 766 µM) | inactive | 250 µg/mL (≈ 766 µM) | inactive | 250 µg/mL (≈ 766 µM) | 125 µg/mL (≈ 383 µM) | 250 µg/mL (≈ 766 µM) | 250 µg/mL (≈ 766 µM) | 125 µg/mL (≈ 383 µM) | 250 µg/mL (≈ 766 µM) | 250 µg/mL (≈ 766 µM) | 250 µg/mL (≈ 766 µM) | 0.306 | 250 µg/mL (≈ 766 µM) | > 80 |
| CCC(=O)N1CCCC2(O)c3ccccc3N(C)C12 (configuration not stated) | inactive | inactive | inactive | inactive | 250 µg/mL (≈ 960 µM) | inactive | inactive | inactive | inactive | 31.2 µg/mL (≈ 120 µM) | 250 µg/mL (≈ 960 µM) | inactive | inactive | inactive | inactive | inactive | 0.0384 | inactive | > 80 |
| Cc1cccc(CN2c3ccccc3C3(Cc4cccc(C)c4)CCN(C(=O)C(C)C)C23)c1 (configuration not stated) | 250 µg/mL (≈ 570 µM) | 15.6 µg/mL (≈ 35.6 µM) | inactive | 250 µg/mL (≈ 570 µM) | inactive | 250 µg/mL (≈ 570 µM) | 250 µg/mL (≈ 570 µM) | 250 µg/mL (≈ 570 µM) | 250 µg/mL (≈ 570 µM) | inactive | 250 µg/mL (≈ 570 µM) | 125 µg/mL (≈ 285 µM) | inactive | inactive | inactive | inactive | 13600 | 250 µg/mL (≈ 570 µM) | – |
| CCCCC(=O)N1CCCC2(O)c3ccccc3N(C)C12 (configuration not stated) | inactive | inactive | inactive | inactive | 250 µg/mL (≈ 867 µM) | inactive | inactive | inactive | inactive | 62.5 µg/mL (≈ 217 µM) | 250 µg/mL (≈ 867 µM) | inactive | inactive | inactive | 125 µg/mL (≈ 433 µM) | inactive | 27400 | 250 µg/mL (≈ 867 µM) | – |
| COc1ccc(C(=O)N2CCC3(Cc4cccc(C)c4)c4ccccc4N(Cc4cccc(C)c4)C23)cc1 (configuration not stated) | 250 µg/mL (≈ 497 µM) | inactive | inactive | inactive | inactive | 250 µg/mL (≈ 497 µM) | inactive | inactive | 250 µg/mL (≈ 497 µM) | inactive | 125 µg/mL (≈ 249 µM) | 250 µg/mL (≈ 497 µM) | inactive | 250 µg/mL (≈ 497 µM) | inactive | inactive | 2810 | inactive | – |
